Source: patent publication US9834525B2, “Inhibitors of paxillin function and related compositions and methods” (UNIVERSITY OF TENNESSEE RESEARCH FOUNDATION, priority 2015, dated 2017)
“Also recorded” adds a separate entry of the source.

Columns and labels:
[1] = test system: retinal endothelial cells (REC); test: VEGF-induced REC proliferation, WST-1 metabolic assay; type: cell-based, human
Experimental: To investigate the potential of compound (II-4) affecting the proliferative capacity of RECs treated with VEGF, proliferation was measured using the metabolic assay based on the tetrazolium salt, WST-1. […] To rule out the possibility that this observation was related to cytotoxicity, RECs were incubated with a high concentration of compound (II-4) (1 μM) for 24 hours. Cells were harvested and apoptosis measured with Annexin-V/Propidium Iodide (PI) staining and analyzed using flow cytometry.
FIG. 18: REC Proliferation and Flow cytometry analysis of apoptosis in REC. A) VEGF-induced cellular proliferation was assessed using the WST-1 metabolic assay. […] (*P<0.0001). Nuclei were stained with DRAQ5 and imaged to show trend of decreasing proliferation. B) Apoptosis was measured using Annexin V/PI staining Compound (II-4) (1 μM) appears to be non-cytotoxic to retinal endothelial cells after 24 hour incubation (n≈10,000 cells).
FIG. 21: REC Proliferation. […] (*, # P<0.001; Mean±SD, N=8/group).

metastatic-UM cell = test: CFSE cellular proliferation, metastatic UM; type: cell-based, human; settings: metastatic-UM cells; 96 hrs culture, 1 μM for the last 24 hrs
Experimental: Harvested cells were resuspended at a concentration of 1.0×10^6 cells/mL in warm PBS/1% FBS. Cells were labeled with […] (Invitrogen) for 5 minutes at 37° C. then quenched on cold growth media (final volume 20 mL) for 10 minutes, twice. Cultured unlabeled cells were used as controls.
To test the hypothesis that inhibition of paxillin will reduce cellular proliferation UM cell lines were labeled with carboxyfluorescein succunimidyl ester (CFSE), a cell tracking dye, and cultured for 96 hrs. A group of cells received treatment with compound (II-4) for the last 24 hours. Maximum CFSE fluorescence was controlled using labeled cells prior culture −0 hr. Negative control was established using unlabeled cells cultured in parallel. Histograms in FIG. 15D show 96 hrs cultured cells divided with a 1-log shift or reduction in CFSE intensity. […] Cell proliferation was not affected in the 92.1 cell line. […]
FIG. 15: The paxillin inhibitor Compound (II-4) selectively affects cellular proliferation of primary UM cells that become metastatic. […] Unlabeled cells were used to control fluorescence. […] B. Quantitation of experiment +/−SD including primary UM that becomes metastatic (Mel 270), metastatic (OMM 2.1) and primary (92.1) UM cells. *P=0.0007 and **P=0.0005. […] Quantitation of VLA-4 protein levels +/−SD from n=3. […]

UM tumor cell lines = test: Total cell numbers in UM cultures; type: cell-based, human
CYP3A4 = target: T1, CYP3A4 (Homo sapiens, UniProt P08684); test: CYP-450 interaction study in pooled human liver microsomes, CYP3A4; type: in vitro ADME; settings: 1 μM
T1 construct: from tissue; host or cells: pooled human liver microsomes
T1 sequence (P08684 whole entry): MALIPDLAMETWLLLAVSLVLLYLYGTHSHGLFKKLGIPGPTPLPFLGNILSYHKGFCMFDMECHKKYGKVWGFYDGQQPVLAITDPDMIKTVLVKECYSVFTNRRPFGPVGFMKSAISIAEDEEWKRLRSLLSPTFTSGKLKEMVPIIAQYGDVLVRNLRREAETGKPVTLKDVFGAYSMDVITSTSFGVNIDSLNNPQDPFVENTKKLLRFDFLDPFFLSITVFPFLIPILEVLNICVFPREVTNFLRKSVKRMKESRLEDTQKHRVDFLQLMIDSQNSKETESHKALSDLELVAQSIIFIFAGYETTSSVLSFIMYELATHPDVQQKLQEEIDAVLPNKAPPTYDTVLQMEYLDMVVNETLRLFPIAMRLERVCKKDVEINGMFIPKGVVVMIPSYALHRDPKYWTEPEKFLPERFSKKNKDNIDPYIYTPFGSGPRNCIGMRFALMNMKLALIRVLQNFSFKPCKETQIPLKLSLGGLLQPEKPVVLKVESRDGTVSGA
Experimental: CYP-450 interaction studies were conducted in pooled human liver microsomes (FIG. 8). CYP-450 inhibition (%) by compound (II-4) (1 μM) was compared to control inhibitors (1 μM) for the most common CYP-450 isoforms, CYP3A4, CYP2C9, CYP2D6, CYP2C19, and CYP1A2.
CYP-450 interaction studies were conducted in pooled human liver microsomes (FIG. 24). CYP-450 inhibition (%) by compound (II-4) (1 μM) was compared to control inhibitors (1 μM) for the most common CYP-450 isoforms, 3A4, 2C9, 2D6, 2C19, and 1A2.

murine OIR model = test: Murine OIR model, retinal whole-mounts; type: in vivo, mouse; settings: daily ocular administration 0.5 mg/kg or 5 mg/kg in ME, P12 to P17, vs vehicle
Source text: (§1) Topical delivery of compound (II-4) using an ocular ME was chosen for several reasons. First, intravitreal injection is technically challenging and, unlike intraocular delivery of proteins, is unnecessary for delivery of small molecules. […] The murine OIR model was used to examine the effect of compound (II-4) on the natural history of VEGF-induced proliferative retinopathy. Briefly, pups were exposed to 75% oxygen at post-natal day 7 (P7) for 5 days and then returned to normal oxygen at P12. Mice received daily ocular administration of either compound (II-4) (0.5 mg/kg or 5 mg/kg) or vehicle (ME) from P12 to P17. Eyes were enucleated at P17 and retinal whole-mounts stained for endothelial cells followed by quantification of avascular area and vascular tuft formation.
(§2) FIG. 22: Oxygen-Induced Retinopathy (OIR). (A:) P17 retinal whole-mounts were stained for endothelial cells. […] Data represent mean (±SD). N=8-14/group. […] (C): Quantitation of panel A neovascular area. (D): Quantitation of panel A avascular area. (E): Quantitation of panel B total paxillin.

paxillin = test: Murine OIR model, Western blot of retinal homogenates; type: in vivo, mouse; settings: daily ocular administration 0.5 mg/kg or 5 mg/kg, P17
Source text: as §1, §2

Pkd1 V/V mouse = test: Dermal microemulsion delivery to Pkd1 cystic mice (ADPKD model); type: in vivo; settings: dermal application as microemulsion, neonatal Pkd1 mice
Source text: Paxillin is abnormally expressed in cystic epithelial cells in a mouse model of ADPKD. […] For this reason, paxillin can be considered to act as a “rheostat” that can be targeted to curtail cystogenesis.
The paxillin inhibitor compound (II-4) inactivates phosphorylation at Y118 on paxillin using retinal endothelial cells. Compound (II-4) has been formulated as a microemulsion for non-invasive delivery to neonatal Pkd1 non-cystic and cystic mice and it has been observed that renal cystic disease was attenuated as measured by total kidney-to-body weight ratio.
FIG. 4: Paxillin in ADPKD kidneys. (A) Immunoblot of total paxillin in protein lysates from non-cystic Pkd1^+/+ (n=5) and cystic Pkd1^V/V (n=3) mouse kidneys at post-natal day 11 after 8 days of dermal application of compound (II-4) microemulsion solution. GAPDH was used as a loading control. Densitometry of the bands normalized to GAPDH is shown for (B) paxillin and (C) phospho-paxillin (C). * P<0.005 difference between groups.

`COc1cc(C2OC(=O)Nc3c2ccc2ccccc32)cc(OC)c1OC` (stereo not drawn) [compound II-4] was tested, and the “VEGF-induced REC proliferation (FIG. 21)” value ([1]; Compound (II-4) (500 nM), LY294002 (1004), SU6656 (104), U0126 (104) [sic]) was “inhibited”, the “VEGF-induced cellular proliferation (WST-1)” value ([1]; increasing concentrations of compound (II-4)) was “significant decrease; also recorded: significantly reduces cellular proliferation” and the “cell proliferation (CFSE)” value (metastatic-UM cell) was “reduction was not observed”. For the same compound, the “total cell numbers compared to untreated cultures” value (UM tumor cell lines) was “reduction in total cell numbers”, the “CYP-450 inhibition, CYP3A4” value (CYP3A4) was “lack of significant inhibition; also recorded: lacks significant inhibition” and the “hypoxia-induced neovascularization (neovascular area)” value (murine OIR model) was “striking inhibition; also recorded: reductions in NV”. For the same compound, the retinal avascular area (murine OIR model) was “modest increase; also recorded: increases in AV”, the “total paxillin in retinal homogenates” value (paxillin) was “dose-dependent reduction; also recorded: reduced total paxillin protein” and the “renal cystic disease / cystic disease progression (total kidney-to-body weight ratio)” value (Pkd1 V/V mouse) was “functional reduction in cystic disease progression; also recorded: attenuated”.
